The source of these data is patent US20140273210A1, “HIGH […] […] FOR CELL CULTURES AND APPLICATIONS THEREOF” (Board Of Regents, The University Of Texas System, priority 2013, published 2014).

The test system of this data set is vascular smooth muscle cells. Put plainly: LDH release cytotoxicity assay with or without cyclic mechanical strain. As to conditions: 10 nM mithramycin, 24 hours. As for the experimental part: A colorimetric cytotoxicity assay was used assess the presence of cell death during mechanical loading/drug treatment (Promega). This assay measures release of lactate dehydrogenase (LDH) activity and was used according to the manufactures directions. Mechanical stretch to cells in culture using the various waveforms were applied to cell culture. To confirm the biocompatibility of the cells in the system, cell death was measured through an LDH release assay. The maximal strain of 5% was set to be identical between the groups. After 4 hours of mechanical loading the cytotoxicity of the mechanical load was used using a LDH release assay.
Toxicity testing in the presence of mechanical load. Toxicity of chemotherapeutic drug mithramycin is tested in the presence or absence of mechanical strain. Specifically, cyclic mechanical load of 5% maximal strain was applied to vascular smooth muscle cells in the presence or absence of 10 nM mithramycin for 24 hours. Experiments of vascular smooth muscle cells in the presence or absence of 10 nM mithramycin without mechanical strains were also performed for comparison during the same time period. Release of lactate dehydrogenase (LDH) was measured as indication of cell death and the results were plotted in FIG. 11.
For orientation: Release of lactate dehydrogenase indicates damage to the cell membrane.

Regarding mithramycin, the “Release of lactate dehydrogenase (LDH) compared to control cells” value (absence of mechanical strain) was “about the same”. For the same substance, under “cyclic mechanical load of 5% maximal strain”, the “Increase in LDH release from the cells compared to the control” value was “four folds increase”.
